Calls of active or inactive are those of the source. The calls are words filed in the database; no cut-off is given here.
Assays:
Type in all cases: functional, cell-based
EA.hy 926 [1] = experiment: Inhibition of tube formation in human EAhy926 cells at 25 uM after 24 hrs by phase-contrast microscopy
EA.hy 926 [2] = experiment: Inhibition of tube formation in human EAhy926 cells at 10 uM pre-incubated for 12 hrs measured after 24 hrs by phase-contrast microscopy
EA.hy 926 [3] = experiment: Inhibition of tube formation in human EAhy926 cells at 50 uM after 24 hrs by phase-contrast microscopy
EA.hy 926 [4] = experiment: Inhibition of tube formation in human EAhy926 cells at 20 uM after 24 hrs by phase-contrast microscopy
EA.hy 926 [5] = experiment: Inhibition of tube formation in human EAhy926 cells at 40 uM after 24 hrs by phase-contrast microscopy
EA.hy 926 [6] = experiment: Inhibition of tube formation in human EAhy926 cells after 24 hrs by phase-contrast microscopy

## CCCCC/C=C/C=C/C(O)CCCCCCCC(=O)O (stereo not given)
EA.hy 926 [1]
  Activity: Active

## CCCCC/C=C\C[C@@H](O)/C=C/C=C/C=C\[C@@H](O)CCCC(=O)O
EA.hy 926 [2]
  Activity: Active

## Cc1cccc(Nc2cc(Cl)nc(SCC(=O)O)n2)c1C
EA.hy 926 [2]
  Activity: Active

## CC/C=C\C/C=C\C/C=C\C/C=C\C/C=C\CCCC(=O)O
EA.hy 926 [3]
  Activity: inactive

## CCCCC/C=C\C=C\C(O)C/C=C\C/C=C\CCCC(=O)O (stereo not given)
EA.hy 926 [4]
  Activity: Active
EA.hy 926 [5]
  Activity: Active

## CCCCC/C=C\C=C\C(O)C/C=C\C/C=C\C/C=C\CCCCC(=O)O (stereo not given)
EA.hy 926 [6]
  Activity: Dose-dependent effect
EA.hy 926 [2]
  Activity: Active

## CC1(COc2ccc(CC3SC(=O)NC3=O)cc2)CCCCC1 (stereo not given)
EA.hy 926 [2]
  Activity: Active

## CC/C=C\C/C=C\C/C=C\C/C=C\C/C=C\C/C=C\CCC(=O)O
EA.hy 926 [3]
  Activity: inactive
